Broadly, the IC50 is the concentration that inhibits the measured activity by half. What is called viability, T/C is the result in the treated group divided by that in the control group, in per cent.

For the assay, the system named is NCI-H929 complex spheroids, viability % test/control. Put plainly: Anticancer human tumor NCI-H929 cell line growth inhibition [RAS].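 For all read-outs here: compound exposure lasted seven days before viability was read.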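 For viability, T/C: 100% = DMSO vehicle control viability.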 Conditions: for viability, T/C: stronger effect = lower value. In a few lines:
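Multi-cell-type spheroids: tumor cells plus HUVEC endothelial cells and mesenchymal stem cells. RAS-pathway inhibitors were combined with targeted agents, each dosed in half-log steps down from clinical Cmax, or from 10 microM when Cmax was unknown.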

“And” between values parts separate entries of the source, which are not always exact repeats. Identical values can stand only once.

`CC1(C)CCC(Nc2ncc(C(F)(F)F)c(-c3c[nH]c4c(P(C)(C)=O)c(C#N)ccc34)n2)CN1` (centres undefined) + C#Cc1c(F)ccc2cc(O)cc(-c3ncc4c(N5CC6CCC(C5)N6)nc(OCC56CCCN5CC(F)C6)nc4c3F)c12: the half-inhibitory concentration (IC50) runs as follows: (curve of first compound, second compound 0.0316 µM) 6.01 nM; (curve of first compound, second compound 0.1 µM) 6.55 nM; (curve of first compound, second compound 0.316 µM) 6.56 nM; (curve of first compound, second compound 1 µM) 6.55 nM; (curve of first compound, second compound 3.16 µM) 6.8 nM; (curve of first compound, second compound 10 µM) 6.8 nM. The viability, T/C is, setting by setting: (second compound 0.0316 µM, first compound 0.000949 µM) 129%; (second compound 0.0316 µM, first compound 0.003 µM) 98.5%; (second compound 0.0316 µM, first compound 0.00949 µM) 17.9%; (second compound 0.0316 µM, first compound 0.03 µM) 12.8%; (second compound 0.0316 µM, first compound 0.0949 µM) 8.56%; (second compound 0.0316 µM, first compound 0.3 µM) 5.72%. Further, the viability, T/C is 124% (second compound 0.1 µM, first compound 0.000949 µM); 116% (second compound 0.1 µM, first compound 0.003 µM); 18.6% (second compound 0.1 µM, first compound 0.00949 µM); 13.8% (second compound 0.1 µM, first compound 0.03 µM); 8.47% (second compound 0.1 µM, first compound 0.0949 µM); 5.88% (second compound 0.1 µM, first compound 0.3 µM). Also, the viability, T/C is 127% (second compound 0.316 µM, first compound 0.000949 µM); 114% (second compound 0.316 µM, first compound 0.003 µM); 19.6% (second compound 0.316 µM, first compound 0.00949 µM); 18% (second compound 0.316 µM, first compound 0.03 µM); 8.37% (second compound 0.316 µM, first compound 0.0949 µM); 5.86% (second compound 0.316 µM, first compound 0.3 µM). Besides, the viability, T/C was 121% (second compound 1 µM, first compound 0.000949 µM); 112% (second compound 1 µM, first compound 0.003 µM); 19.3% (second compound 1 µM, first compound 0.00949 µM); 48.8% (second compound 1 µM, first compound 0.03 µM); 9.11% (second compound 1 µM, first compound 0.0949 µM); 5.75% (second compound 1 µM, first compound 0.3 µM). For the same compound, the viability, T/C is, setting by setting: (second compound 3.16 µM, first compound 0.000949 µM) 127%; (second compound 3.16 µM, first compound 0.003 µM) 118%; (second compound 3.16 µM, first compound 0.00949 µM) 22.1%; (second compound 3.16 µM, first compound 0.03 µM) 22.5%; (second compound 3.16 µM, first compound 0.0949 µM) 9.71%; (second compound 3.16 µM, first compound 0.3 µM) 6.25%. The viability, T/C runs as follows: (second compound 10 µM, first compound 0.000949 µM) 125%; (second compound 10 µM, first compound 0.003 µM) 104%; (second compound 10 µM, first compound 0.00949 µM) 23.3%; (second compound 10 µM, first compound 0.03 µM) 63.5%; (second compound 10 µM, first compound 0.0949 µM) 14.7%; (second compound 10 µM, first compound 0.3 µM) 10.9%.
As to `C=CC(=O)Nc1cc(Nc2nccc(-c3cn(C)c4ccccc34)n2)c(OC)cc1N(C)CCN(C)C`, the viability, T/C runs as follows: (compound 0.00316 µM) 103% (2×) and 109% and 105%; (compound 0.01 µM) 99.4% [middle of 4 runs]; (compound 0.0316 µM) 107% [middle of 4 runs]; (compound 0.1 µM) 99% [middle of 4 runs]; (compound 0.316 µM) 105% [middle of 4 runs]; (compound 1 µM) 105% [middle of 4 runs]. In addition, the IC50 (curve of compound) was more than 1000 nM.
For `CCC(CC)c1cc(NC2CCC(N)C2)n2nccc2n1` (centres undefined), the viability, T/C is, setting by setting: (compound 0.0316 µM) 101% [middle of 4 runs]; (compound 0.1 µM) 98% [middle of 4 runs]; (compound 0.316 µM) 99.4% [middle of 4 runs]; (compound 3.16 µM) 1.51% [middle of 4 runs]; (compound 10 µM) 0.97% [middle of 4 runs]. Moreover, the IC50 (curve of compound) was 1.74 µM [middle of 4 runs].
For the compound `CC1(O)CCCC1n1c(=O)c(C(F)F)cc2cnc(NC3CCN(S(C)(=O)=O)CC3)nc21` (centres undefined) + CCn1c(-c2cc(N3CCN(C)CC3)cnc2C(C)OC)c2c3cc(ccc31)-c1csc(n1)CC(NC(=O)C1CC1C)C(=O)N1CCCC(N1)C(=O)OCC(C)(C)C2, the IC50 was 188 nM (curve of first compound, second compound 0.000949 µM); 191 nM (curve of first compound, second compound 0.003 µM); 200 nM (curve of first compound, second compound 0.00949 µM); 57.5 nM (curve of first compound, second compound 0.03 µM); less than 31.6 nM (curve of first compound, second compound 0.0949 µM); less than 31.6 nM (curve of first compound, second compound 0.3 µM). Further, the viability, T/C by setting is: (second compound 0.000949 µM, first compound 0.0316 µM) 109%; (second compound 0.000949 µM, first compound 0.1 µM) 106%; (second compound 0.000949 µM, first compound 0.316 µM) 3.79%; (second compound 0.000949 µM, first compound 1 µM) 4.11%; (second compound 0.000949 µM, first compound 3.16 µM) 3.8%; (second compound 0.000949 µM, first compound 10 µM) 0.15%. The viability, T/C is 103% (second compound 0.003 µM, first compound 0.0316 µM); 115% (second compound 0.003 µM, first compound 0.1 µM); 2.16% (second compound 0.003 µM, first compound 0.316 µM); 7.09% (second compound 0.003 µM, first compound 1 µM); 7.23% (second compound 0.003 µM, first compound 3.16 µM); 0.06% (second compound 0.003 µM, first compound 10 µM). Besides, the viability, T/C was 113% (second compound 0.00949 µM, first compound 0.0316 µM); 117% (second compound 0.00949 µM, first compound 0.1 µM); 4.34% (second compound 0.00949 µM, first compound 0.316 µM); 14.1% (second compound 0.00949 µM, first compound 1 µM); 8.7% (second compound 0.00949 µM, first compound 3.16 µM); 0.05% (second compound 0.00949 µM, first compound 10 µM). The viability, T/C by setting is: (second compound 0.03 µM, first compound 0.0316 µM) 72.2%; (second compound 0.03 µM, first compound 0.1 µM) 29.5%; (second compound 0.03 µM, first compound 0.316 µM) 4.66%; (second compound 0.03 µM, first compound 1 µM) 9.27%; (second compound 0.03 µM, first compound 3.16 µM) 2.06%; (second compound 0.03 µM, first compound 10 µM) 0.13%. For the same compound, the viability, T/C runs as follows: (second compound 0.0949 µM, first compound 0.0316 µM) 6.97%; (second compound 0.0949 µM, first compound 0.1 µM) 4.65%; (second compound 0.0949 µM, first compound 0.316 µM) 3.2%; (second compound 0.0949 µM, first compound 1 µM) 2.92%; (second compound 0.0949 µM, first compound 3.16 µM) 0.85%; (second compound 0.0949 µM, first compound 10 µM) 0.09%. The viability, T/C (second compound 0.3 µM, first compound 0.0316 µM) is 3.5%; the viability, T/C (second compound 0.3 µM, first compound 0.1 µM) is 2.32%; the viability, T/C (second compound 0.3 µM, first compound 0.316 µM) was 2.57%; the viability, T/C (second compound 0.3 µM, first compound 1 µM) is 1.68%; the viability, T/C (second compound 0.3 µM, first compound 3.16 µM) is 0.72%; the viability, T/C (second compound 0.3 µM, first compound 10 µM) was 8.23%.
On to `C[C@@H](NC(=O)c1ncnc(N)c1Cl)c1ncc(C(=O)Nc2cc(C(F)(F)F)c(Cl)cn2)s1`, for which the viability, T/C is 106% [middle of 4 runs] (compound 0.0316 µM); 103% (2×) and 98.6% and 92.7% (compound 0.1 µM); 98.6% [middle of 4 runs] (compound 0.316 µM); 95.3% [middle of 4 runs] (compound 1 µM); 97.7% [middle of 4 runs] (compound 3.16 µM); 108% [middle of 4 runs] (compound 10 µM). Besides, the IC50 (curve of compound) was more than 10000 nM.

Values taken from PubChem BioAssay AID2060884 (Molecular Pharmacology Branch, DTP, NCI, 2025).
